Data reported in PMC5766581, “NF-κB inducing kinase is a therapeutic target for systemic lupus erythematosus” (Nature Communications, 2018).

Columns and labels:
Assay in all cases: SelectScreen kinase panel
Type in all cases: biochemical
[1] = target: T1, CamKIV (Homo sapiens, UniProt Q16566)
T1 construct: purchased Invitrogen / ThermoFisher SelectScreen
Description: (§1) The ability of NIK to catalyze the hydrolysis of adenosine-5′-triphosphate (ATP) was monitored using the Transcreener ADP (adenosine-5′-diphosphate) assay (Bell Brook Labs, Fitchburg, WI). Purified human NIK kinase domain (a.a. 340–694) (0.5 nM) or mouse NIK kinase domain (a.a. 329–675) (1 nM) derived from a baculovirus-infected insect cell expression system was incubated with test compounds for 0.5–2 h in 50 mM HEPES buffer (pH 7.2) containing 10 mM MgCl2, 2 mM dithiothreitol, 10 μM ATP, 0.01% Triton X-100, 0.1% gamma-globulins from bovine blood, 1% dimethylsulfoxide (DMSO), 7 μg/mL ADP antibody and 5 nM ADP-MR121 633 tracer. Reactions were quenched by the addition of 20 mM EDTA and 0.01% Brij 35. The tracer bound to the antibody was displaced by the ADP generated during the NIK reaction, which caused a decrease in fluorescence polarization that was measured by laser excitation at 633 nm with a Fluorescence Correlation Spectroscopy Plus reader (Evotec AG). Equilibrium dissociation constant (Ki) values for NIK inhibitors are calculated from plots of activity vs. inhibitor concentration using Morrison’s quadratic equation that accounts for the potential of tight binding, and by also applying the conversion factor that accounted for competitive inhibition and the concentration of substrate used in the assay relative to its Michaelis constant (Km). The Ki values with hPKD1 (PKCμ) were determined using the same assay conditions as for NIK. Ki measurements for hKHS1 and hLRRK2, as well as broad kinase selectivity profiling for SMI1, were carried out by Invitrogen using their SelectScreen kinase assay panel (ThermoFisher Scientific, Madison, WI). The vendor offered two types of kinase activity assays, a peptide phosphorylation assay (Z′-LYTE) and an ADP quantitation assay (Adapta), as well as one type of kinase ATP site competitive binding assay (LanthaScreen). See vendor web site for technology and protocol details for each specific kinase assay.
(§2) The average % Inhibition of each kinase is reported (Supplementary Table 1).

[2] = target: T2, PrKX (Homo sapiens, UniProt P51817)
T2 construct: purchased Invitrogen / ThermoFisher SelectScreen
Description: as §1, §2

[3] = target: T3, MAP4K4 (Homo sapiens, UniProt O95819)
T3 construct: purchased Invitrogen / ThermoFisher SelectScreen
Description: as §1, §2

[4] = target: T4, TBK1 (Homo sapiens, UniProt Q9UHD2)
T4 construct: purchased Invitrogen / ThermoFisher SelectScreen
Description: as §1, §2

[5] = target: T5, KDR (Homo sapiens, UniProt P35968)
T5 construct: purchased Invitrogen / ThermoFisher SelectScreen
T5 sequence (P35968 20-1356): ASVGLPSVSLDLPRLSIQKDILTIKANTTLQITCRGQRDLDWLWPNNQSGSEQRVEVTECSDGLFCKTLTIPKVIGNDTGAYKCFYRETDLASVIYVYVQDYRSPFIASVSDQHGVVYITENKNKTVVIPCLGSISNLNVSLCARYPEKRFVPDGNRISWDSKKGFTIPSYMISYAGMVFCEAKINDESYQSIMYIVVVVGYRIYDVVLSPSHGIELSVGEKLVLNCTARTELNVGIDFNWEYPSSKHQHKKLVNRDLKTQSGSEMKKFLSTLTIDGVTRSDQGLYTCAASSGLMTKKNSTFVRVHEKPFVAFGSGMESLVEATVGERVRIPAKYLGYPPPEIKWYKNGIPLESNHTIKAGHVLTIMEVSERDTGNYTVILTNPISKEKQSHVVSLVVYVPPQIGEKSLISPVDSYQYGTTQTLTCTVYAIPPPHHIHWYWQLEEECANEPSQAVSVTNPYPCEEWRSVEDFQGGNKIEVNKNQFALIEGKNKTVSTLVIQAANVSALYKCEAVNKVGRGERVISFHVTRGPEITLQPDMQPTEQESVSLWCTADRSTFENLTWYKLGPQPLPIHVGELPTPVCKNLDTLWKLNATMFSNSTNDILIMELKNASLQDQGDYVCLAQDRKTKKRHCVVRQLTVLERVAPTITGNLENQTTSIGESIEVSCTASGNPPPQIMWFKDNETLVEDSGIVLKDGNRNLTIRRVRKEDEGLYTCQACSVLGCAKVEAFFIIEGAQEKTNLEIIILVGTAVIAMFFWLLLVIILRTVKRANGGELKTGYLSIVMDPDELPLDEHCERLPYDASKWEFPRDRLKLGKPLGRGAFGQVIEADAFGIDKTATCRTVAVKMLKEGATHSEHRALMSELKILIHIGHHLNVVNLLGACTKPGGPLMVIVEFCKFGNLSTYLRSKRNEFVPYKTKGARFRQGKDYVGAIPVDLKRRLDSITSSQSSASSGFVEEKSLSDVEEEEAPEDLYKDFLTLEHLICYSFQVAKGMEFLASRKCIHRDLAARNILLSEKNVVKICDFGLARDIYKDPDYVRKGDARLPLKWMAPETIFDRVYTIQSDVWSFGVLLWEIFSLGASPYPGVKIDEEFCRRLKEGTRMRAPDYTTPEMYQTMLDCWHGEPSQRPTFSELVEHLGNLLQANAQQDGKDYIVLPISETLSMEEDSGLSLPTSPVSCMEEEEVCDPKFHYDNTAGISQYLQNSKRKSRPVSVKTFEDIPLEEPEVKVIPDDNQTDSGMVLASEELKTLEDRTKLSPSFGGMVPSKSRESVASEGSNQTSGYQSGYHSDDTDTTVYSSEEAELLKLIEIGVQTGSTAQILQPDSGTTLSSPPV
Description: as §1, §2

[6] = target: T6, PKC_theta (Homo sapiens, UniProt Q04759)
T6 construct: purchased Invitrogen / ThermoFisher SelectScreen
T6 sequence (Q04759 whole entry): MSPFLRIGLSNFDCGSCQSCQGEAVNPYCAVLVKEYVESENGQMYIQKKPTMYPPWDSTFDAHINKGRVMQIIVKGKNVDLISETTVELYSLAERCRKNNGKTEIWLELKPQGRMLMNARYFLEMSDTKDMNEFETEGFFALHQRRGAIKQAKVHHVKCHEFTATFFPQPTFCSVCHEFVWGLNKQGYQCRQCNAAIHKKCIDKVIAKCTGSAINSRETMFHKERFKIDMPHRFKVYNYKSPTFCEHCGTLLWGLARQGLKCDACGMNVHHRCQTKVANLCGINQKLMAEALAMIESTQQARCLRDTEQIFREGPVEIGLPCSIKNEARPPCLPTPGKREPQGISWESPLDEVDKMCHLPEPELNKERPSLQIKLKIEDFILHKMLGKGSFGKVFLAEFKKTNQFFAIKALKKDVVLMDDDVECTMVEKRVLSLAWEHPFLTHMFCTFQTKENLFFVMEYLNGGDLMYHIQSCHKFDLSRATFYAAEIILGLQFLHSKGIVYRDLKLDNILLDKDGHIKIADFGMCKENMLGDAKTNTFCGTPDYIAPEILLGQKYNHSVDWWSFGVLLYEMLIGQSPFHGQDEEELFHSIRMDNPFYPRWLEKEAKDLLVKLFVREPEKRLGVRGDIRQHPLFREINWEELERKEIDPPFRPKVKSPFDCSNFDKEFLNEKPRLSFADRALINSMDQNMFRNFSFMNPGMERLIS
Description: as §1, §2

[7] = target: T7, DNA-PK (Homo sapiens, UniProt P78527)
T7 construct: purchased Invitrogen / ThermoFisher SelectScreen
Description: as §1, §2

[8] = target: T8, PDGFR_alpha (Homo sapiens, UniProt P16234)
T8 construct: purchased Invitrogen / ThermoFisher SelectScreen
Description: as §1, §2

[9] = target: T9, TrkB (Homo sapiens, UniProt Q16620)
T9 construct: purchased Invitrogen / ThermoFisher SelectScreen
Description: as §1, §2

[10] = target: T10, IRAK1 (Homo sapiens, UniProt P51617)
T10 construct: purchased Invitrogen / ThermoFisher SelectScreen
Description: as §1, §2

[11] = target: T11, NEK9 (Homo sapiens, UniProt Q8TD19)
T11 construct: purchased Invitrogen / ThermoFisher SelectScreen
Description: as §1, §2

[12] = target: T12, PRK1 (Homo sapiens, UniProt Q16512)
T12 construct: purchased Invitrogen / ThermoFisher SelectScreen
Description: as §1, §2

[13] = target: T13, MSK1 (Homo sapiens, UniProt O75582)
T13 construct: purchased Invitrogen / ThermoFisher SelectScreen
Description: as §1, §2

[14] = target: T14, CSF1R (Homo sapiens, UniProt P07333)
T14 construct: purchased Invitrogen / ThermoFisher SelectScreen
Description: as §1, §2

[15] = target: T15, PLK3 (Homo sapiens, UniProt Q9H4B4)
T15 construct: purchased Invitrogen / ThermoFisher SelectScreen
Description: as §1, §2

[16] = target: T16, PLK2 (Homo sapiens, UniProt Q9NYY3)
T16 construct: purchased Invitrogen / ThermoFisher SelectScreen
Description: as §1, §2

[17] = target: T17, CDK9/cyclinT1 (Homo sapiens, UniProt P50750)
T17 construct: purchased Invitrogen / ThermoFisher SelectScreen
Description: as §1, §2

[18] = target: T18, SGK2 (Homo sapiens, UniProt Q9HBY8)
T18 construct: purchased Invitrogen / ThermoFisher SelectScreen
T18 sequence (Q9HBY8 whole entry): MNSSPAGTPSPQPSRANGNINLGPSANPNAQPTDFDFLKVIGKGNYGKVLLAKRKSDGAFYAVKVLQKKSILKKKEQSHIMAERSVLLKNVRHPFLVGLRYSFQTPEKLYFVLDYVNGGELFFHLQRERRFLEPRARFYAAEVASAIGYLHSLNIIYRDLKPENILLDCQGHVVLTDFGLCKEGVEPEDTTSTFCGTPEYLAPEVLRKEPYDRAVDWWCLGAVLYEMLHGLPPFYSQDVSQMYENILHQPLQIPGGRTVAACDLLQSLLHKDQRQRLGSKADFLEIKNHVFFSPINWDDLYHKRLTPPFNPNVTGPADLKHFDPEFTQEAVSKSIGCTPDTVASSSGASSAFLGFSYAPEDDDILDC
Description: as §1, §2

[19] = target: T19, CK1_epsilon1 (Homo sapiens, UniProt P49674)
T19 construct: purchased Invitrogen / ThermoFisher SelectScreen
Description: as §1, §2

[20] = target: T20, SPHK1 (Homo sapiens, UniProt Q9NYA1)
T20 construct: purchased Invitrogen / ThermoFisher SelectScreen
Description: as §1, §2

[21] = target: T21, Tie2 (Homo sapiens, UniProt Q02763)
T21 construct: purchased Invitrogen / ThermoFisher SelectScreen
Description: as §1, §2

[22] = target: T22, ROCK2 (Homo sapiens, UniProt O75116)
T22 construct: purchased Invitrogen / ThermoFisher SelectScreen
T22 sequence (O75116 whole entry): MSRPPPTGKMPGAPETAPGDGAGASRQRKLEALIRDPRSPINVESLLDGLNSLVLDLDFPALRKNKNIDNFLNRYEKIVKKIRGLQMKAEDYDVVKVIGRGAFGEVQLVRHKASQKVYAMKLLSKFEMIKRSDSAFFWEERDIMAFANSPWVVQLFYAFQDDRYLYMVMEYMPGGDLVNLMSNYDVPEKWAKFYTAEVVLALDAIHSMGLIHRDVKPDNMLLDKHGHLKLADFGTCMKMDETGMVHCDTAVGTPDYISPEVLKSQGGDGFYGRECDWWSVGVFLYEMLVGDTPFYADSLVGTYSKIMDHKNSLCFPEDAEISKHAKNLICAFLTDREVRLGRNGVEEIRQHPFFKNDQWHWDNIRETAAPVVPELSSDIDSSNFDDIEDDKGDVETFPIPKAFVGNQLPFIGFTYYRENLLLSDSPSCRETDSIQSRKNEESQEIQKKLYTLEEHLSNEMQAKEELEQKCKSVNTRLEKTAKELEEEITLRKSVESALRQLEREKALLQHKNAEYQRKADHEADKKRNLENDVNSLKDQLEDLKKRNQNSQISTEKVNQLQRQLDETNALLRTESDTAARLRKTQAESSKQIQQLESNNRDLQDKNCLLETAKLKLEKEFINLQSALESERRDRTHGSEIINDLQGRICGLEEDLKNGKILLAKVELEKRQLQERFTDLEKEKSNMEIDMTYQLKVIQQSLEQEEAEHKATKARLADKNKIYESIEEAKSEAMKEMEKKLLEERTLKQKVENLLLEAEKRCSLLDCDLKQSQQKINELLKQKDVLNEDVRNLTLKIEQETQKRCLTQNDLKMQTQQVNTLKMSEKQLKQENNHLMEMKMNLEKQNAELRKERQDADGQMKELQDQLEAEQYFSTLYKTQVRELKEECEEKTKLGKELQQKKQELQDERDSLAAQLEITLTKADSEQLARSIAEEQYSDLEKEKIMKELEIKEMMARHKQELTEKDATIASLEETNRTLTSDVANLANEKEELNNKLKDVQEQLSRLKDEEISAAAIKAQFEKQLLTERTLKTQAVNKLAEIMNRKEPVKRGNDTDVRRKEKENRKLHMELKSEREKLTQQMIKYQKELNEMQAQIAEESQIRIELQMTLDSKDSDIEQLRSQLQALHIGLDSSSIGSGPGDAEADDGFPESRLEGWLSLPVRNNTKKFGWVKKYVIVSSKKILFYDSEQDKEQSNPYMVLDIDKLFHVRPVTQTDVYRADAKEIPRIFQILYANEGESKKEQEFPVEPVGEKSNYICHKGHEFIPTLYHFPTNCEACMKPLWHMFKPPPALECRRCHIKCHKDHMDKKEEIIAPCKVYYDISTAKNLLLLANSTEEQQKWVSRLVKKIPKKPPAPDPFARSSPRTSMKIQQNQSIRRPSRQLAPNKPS
Description: as §1, §2

[23] = target: T23, CDK1/cyclinB (Homo sapiens, UniProt P06493)
T23 construct: purchased Invitrogen / ThermoFisher SelectScreen
Description: as §1, §2

[24] = target: T24, GSK3_alpha (Homo sapiens, UniProt P49840)
T24 construct: purchased Invitrogen / ThermoFisher SelectScreen
Description: as §1, §2

[25] = target: T25, PIM1 (Homo sapiens, UniProt P11309)
T25 construct: purchased Invitrogen / ThermoFisher SelectScreen
Description: as §1, §2

[26] = target: T26, CK1_alpha1 (Homo sapiens, UniProt P48729)
T26 construct: purchased Invitrogen / ThermoFisher SelectScreen
T26 sequence (P48729 whole entry): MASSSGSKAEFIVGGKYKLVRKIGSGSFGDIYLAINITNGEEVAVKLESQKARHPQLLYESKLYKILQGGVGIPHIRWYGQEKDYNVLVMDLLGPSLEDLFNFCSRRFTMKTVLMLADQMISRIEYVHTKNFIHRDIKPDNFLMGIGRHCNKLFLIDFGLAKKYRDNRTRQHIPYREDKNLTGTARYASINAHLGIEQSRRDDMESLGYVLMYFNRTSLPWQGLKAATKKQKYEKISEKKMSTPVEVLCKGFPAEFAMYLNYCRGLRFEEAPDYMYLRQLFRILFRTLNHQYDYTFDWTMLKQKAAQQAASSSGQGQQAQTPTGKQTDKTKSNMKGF
Description: as §1, §2

[27] = target: T27, Mer (Homo sapiens, UniProt Q12866)
T27 construct: purchased Invitrogen / ThermoFisher SelectScreen
Description: as §1, §2

[28] = target: T28, Srm (Homo sapiens, UniProt Q9H3Y6)
T28 construct: purchased Invitrogen / ThermoFisher SelectScreen
Description: as §1, §2

[29] = target: T29, PKC_eta (Homo sapiens, UniProt P24723)
T29 construct: purchased Invitrogen / ThermoFisher SelectScreen
Description: as §1, §2

[30] = target: T30, ARK5 (Homo sapiens, UniProt O60285)
T30 construct: purchased Invitrogen / ThermoFisher SelectScreen
Description: as §1, §2

[31] = target: T31, PI3K- G (Homo sapiens, UniProt P48736)
T31 construct: purchased Invitrogen / ThermoFisher SelectScreen
Description: as §1, §2

[32] = target: T32, IKK_beta (Homo sapiens, UniProt O14920)
T32 construct: purchased Invitrogen / ThermoFisher SelectScreen
T32 sequence (O14920 whole entry): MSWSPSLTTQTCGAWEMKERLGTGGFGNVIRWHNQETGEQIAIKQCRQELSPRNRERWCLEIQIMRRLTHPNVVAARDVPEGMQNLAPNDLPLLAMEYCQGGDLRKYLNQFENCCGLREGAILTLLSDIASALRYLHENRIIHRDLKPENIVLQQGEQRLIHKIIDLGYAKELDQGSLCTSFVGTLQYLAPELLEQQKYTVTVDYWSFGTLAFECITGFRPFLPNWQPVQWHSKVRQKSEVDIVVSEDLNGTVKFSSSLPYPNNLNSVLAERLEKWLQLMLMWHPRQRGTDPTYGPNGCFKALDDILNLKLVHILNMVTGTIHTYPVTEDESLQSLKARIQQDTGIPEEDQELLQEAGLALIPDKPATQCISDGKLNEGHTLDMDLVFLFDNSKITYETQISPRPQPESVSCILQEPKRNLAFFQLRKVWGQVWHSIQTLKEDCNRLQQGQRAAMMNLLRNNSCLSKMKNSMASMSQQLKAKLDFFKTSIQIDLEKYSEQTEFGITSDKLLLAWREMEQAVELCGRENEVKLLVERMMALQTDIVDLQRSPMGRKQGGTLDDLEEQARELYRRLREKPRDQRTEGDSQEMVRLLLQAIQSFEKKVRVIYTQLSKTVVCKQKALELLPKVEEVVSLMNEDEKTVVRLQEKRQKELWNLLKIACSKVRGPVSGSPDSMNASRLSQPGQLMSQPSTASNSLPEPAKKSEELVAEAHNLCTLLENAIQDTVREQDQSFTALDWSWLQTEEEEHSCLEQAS
Description: as §1, §2

[33] = target: T33, Kit (Homo sapiens, UniProt P10721)
T33 construct: purchased Invitrogen / ThermoFisher SelectScreen
Description: as §1, §2

In the case of COc1cc(C(N)=O)nc(-c2cccc(C#C[C@]3(O)CCN(C)C3=O)c2)c1 [NIK SMI1], the inhibition at 1 µM [1] is reported as 14.5%, the inhibition at 1 µM [2] is reported as 11% and the inhibition at 1 µM [3] is reported as 45.5%. The inhibition at 1 µM [4] was 26.5%, the inhibition at 1 µM [5] was -1.5% and the inhibition at 1 µM [6] was -6%. For the same compound, the inhibition at 1 µM [7] was -4%, the inhibition at 1 µM [8] was -4.5% and the inhibition at 1 µM [9] was -3.5%. It also gave an inhibition at 1 µM [10] of 1.8%, an inhibition at 1 µM [11] of 1.5% and an inhibition at 1 µM [12] of 5.5%. The inhibition at 1 µM [13] was 7.5%, the inhibition at 1 µM [14] was -11% and the inhibition at 1 µM [15] was 9%. The inhibition at 1 µM [16] was 4%, the inhibition at 1 µM [17] was 15.3% and the inhibition at 1 µM [18] was 9.5%. It also gave an inhibition at 1 µM [19] of 6.5%, an inhibition at 1 µM [20] of 21.3% and an inhibition at 1 µM [21] of 6%. The inhibition at 1 µM [22] was 7.5%, the inhibition at 1 µM [23] was 8.5% and the inhibition at 1 µM [24] was 15%. For the same compound, the inhibition at 1 µM [25] was -0.5%, the inhibition at 1 µM [26] was 2% and the inhibition at 1 µM [27] was 3.5%. For the same compound, the inhibition at 1 µM [28] was 12%, the inhibition at 1 µM [29] was 38% and the inhibition at 1 µM [30] was 1.5%. It also gave an inhibition at 1 µM [31] of -2.9%, an inhibition at 1 µM [32] of 4.5% and an inhibition at 1 µM [33] of -3.5%.
